According to ChEMBL document CHEMBL5661955, “ASAP - In vitro cytotoxicity” (2024):
Several values for one entry are separate records, joined by “and”; a condition that tells them apart may be missing. Equal values may be shown once.

What was measured:
[1] = Functional assay to measure dose dependent changes in cell viability from drug treatment in Vero E6 miRFP670 cells (cotreated with P-gp inhibitor, CP100356) that are infected with Dengue virus type 2 New Guinea C. […] Cytotoxicity is reported via via analysis of DAPI count using high-content imager. The assay has been performed by KU Leuven.; type: toxicity, cell-based, Vero C1008; details: chlorocebus sabaeus, p-gp concentration 500 nM
[2] = Functional CPE-based assay to measure dose dependent changes in cell viability from drug treatment in Vero E6 miRFP670 cells (cotreated with P-gp inhibitor, CP100356). Cells are treated with antiviral candidates that have been serially diluted. Cytotoxicity is reported via analysis of MTS assays in uninfected cells. The assay has been performed by KU Leuven.; type: toxicity, Vero C1008; details: chlorocebus sabaeus, p-gp concentration 500 nM
[3] = with CP100356 (P-gp inhibitor, concentration not stated)
[4] = Vero E6 miRFP670 cells, with CP100356 (P-gp inhibitor, concentration not stated)

Structure (SMILES)	CC50 [1, 3] [µM]	CC50 [2, 4] [µM]	CC50 ([1]; vero c1008) [µM]	CC50 ([2]; vero c1008)
O=C(Nc1ccc2c(c1)CNC2)c1cc(F)cc(-c2c[nH]c(=O)c(F)c2)c1	25.4	> 50		
N#CCc1cc(NC(=O)c2cc(F)cc3[nH]ncc23)cc2c1CNC2	> 50	> 50		
C=Cc1cc2c(cc1NC(=O)c1cc(F)cc3[nH]ncc13)CNC2	> 50	> 50		
O=C(Nc1ccc2c(c1)CNC2)c1ccc2c(C3=CCNCC3)csc2c1	18.8	47.1		
O=C(Nc1cc2c(cc1C1CC1)CNC2)c1cc(F)cc2[nH]ncc12	10.1	> 50		
Cc1ccc(-c2nc3c(C(=O)Nc4ccc5c(c4)CNC5)cc(F)cc3[nH]2)cc1	3	1.42		
O=C(NC1CCOCC1)[C@H](Nc1ccc2c(c1)CNC2)c1cc(Cl)cc2[nH]ncc12	> 50	> 50		
CC1=C(c2cc(NC(=O)c3cc(Cl)cc4[nH]ncc34)cc3c2CNC3)CCC1=O	> 50	> 50		
O=C(Nc1ccc2c(c1)CNC2)c1cc(Cl)cc2c1cnn2C[C@H]1CCCO1	37.1	26.9		
O=C(Nc1ccc2c(c1)CNC2)c1cc(F)c2[nH]ccc2c1	> 50	48.1		
Cn1c(=O)[nH]c2c(C(=O)Nc3ccc4c(c3)CNC4)cc(Br)cc21	> 50	34.2		
O=C(Nc1cc2c(c(C3=CC[C@H](O)CC3)c1)CNC2)c1cc(Cl)cc2[nH]ncc12	> 50	> 50		
O=C(Nc1ccc2c(c1)CNC2)c1cc(Cl)cc2[nH]c(-c3cc(C4CC4)[nH]n3)nc12	1.27	1.51		
O=C(Nc1ccc2c(c1)CNC2)c1cc(F)cc2c1CCC2	> 50	33		
Cc1cccc(-c2nc3c(C(=O)Nc4ccc5c(c4)CNC5)cc(Cl)cc3[nH]2)c1O	9	3.03	8.94	3.17 µM
O=C(Nc1ccc2c(c1)CNC2)c1cccc2[nH]c(=O)[nH]c12	33.3	> 50		
O=C(Nc1ccc2c(c1)CN[C@H]2CCO)c1cc(F)cc2[nH]ncc12	42.5	> 50		
C=CC[C@H]1NCc2cc(NC(=O)c3cc(F)cc4c3CC(=O)N4)ccc21	> 50	> 50		
Cc1cnccc1-c1cc(NC(=O)c2cc(F)cc3[nH]ncc23)cc2c1CNC2	> 50	> 50		
O=C(Nc1ccc2c(c1)CNC2)c1cc(F)cc2[nH]c(-c3ccc(F)cc3)nc12	4.33	6.47		

Structure (SMILES)	CC50 [1, 3] [µM]	CC50 [2, 4] [µM]	CC50 ([1]; vero c1008) [µM]	CC50 ([2]; vero c1008)
O=C(Nc1ccc2c(c1)CNC2)c1cccc2nc(O)ccc12	> 50	36.5		
CC(C)CNC(=O)[C@H](Nc1ccc2c(c1)CNC2)c1cc(Cl)cc2[nH]ncc12	17	> 50		
Cc1cc(-c2cc(F)cc(C(=O)Nc3ccc4c(c3)CNC4)c2)[nH]n1	> 50	> 50		
COc1cc(-c2cc(NC(=O)c3cc(F)cc4[nH]ncc34)cc3c2CNC3)ccn1	> 50	> 50		
CCOCCNC(=O)[C@H](Nc1ccc2c(c1)CNC2)c1cc(Cl)cc2[nH]ncc12	9.94	> 50		
CC(C)n1cc2c(C(=O)Nc3ccc4c(c3)CNC4)cc(Cl)cc2n1	22.7	11.8		
O=C1Cc2cc(C(=O)Nc3ccc4c(c3)CNC4)ccc2N1	> 50			8.74 µM and > 50 µM
CCCNC(=O)[C@H](Nc1ccc2c(c1)CNC2)c1cc(Cl)cc2[nH]ncc12	12.9	> 50		
O=C(NCc1cccnc1)[C@H](Nc1ccc2c(c1)CNC2)c1cc(Cl)cc2[nH]ncc12	> 50	8.32		
N#Cc1cccc(-c2nc3c(C(=O)Nc4ccc5c(c4)CNC5)cc(Cl)cc3[nH]2)c1	> 50	6.67		
O=C(Nc1ccc2c(c1)CNC2)c1cccc2cn[nH]c12	> 50	47.8		
O=C(Nc1cc2c(cc1Br)CNC2)c1cc(F)cc2[nH]ncc12	> 50	46.1		
O=C(Nc1ccc2c(c1)CNC2)c1cc(F)cc(-c2cnc(C3CC3)s2)c1	16.4	19.7		
O=C(Nc1ccc2c(c1)CNC2)c1cc(Cl)cc2ccccc12	25.1	10.1		
O=C(Nc1cc2c(c(C3=CCS(=O)(=O)CC3)c1)CNC2)c1cc(F)cc2[nH]ncc12	> 50	> 50		
O=C(Nc1cc2c(c(-c3ccnnc3)c1)CNC2)c1cc(Cl)cc2[nH]ncc12	25.8	> 50		
O=C(Nc1ccc2c(c1)CNC2)c1cc(Cl)cc2c1cnn2C1CCC1	12.8	9.91		
O=C(Nc1ccc2c(c1)CNC2)c1cc(Cl)cc2c1NCCC2	24.8	6.83		
O=C(Nc1ccc2c(c1)CNC2)c1cc(Cl)cc(N2CCCC2)c1	13.2	5.83		
O=C(Nc1cc2c(c(C3=CCOCC3)c1)CNC2)c1cc(F)cc2[nH]ncc12	> 50	> 50		
